Like-named read-outs stand apart in the source and are kept apart here.
Key:
[1] = test system: rats with induced SAH; experiment: Neurological scoring in rat subarachnoid hemorrhage model; assay type: in vivo; settings: established scoring system, SAH+vehicle score 1, sham score 0
Text: (§1) Subarachnoid hemorrhage was induced by a model originally devised by Svendgaard et al and carefully described by Prunell et al (2003). Male Sprague-Dawley rats (350-400 g) were anaesthetized using 5% halothane (Halocarbon Laboratories, River Edge, N.J.) in N2O/O2 (30:70). The rat was intubated and artificially ventilated with inhalation of 0.5-1.5% halothane in N2O/O2 (70:30) during the surgical procedure. The depth of anaesthesia was carefully monitored and the respiration checked by regularly withdrawing arterial blood samples for blood gas analysis (Radiometer, Copenhagen, Denmark). An electric temperature probe was inserted into the rectum of the rat to record the temperature, which was maintained at 37° C. An arterial catheter to measure blood pressure was placed in the tail artery and a catheter to monitor intracranial pressure (ICP) was placed in the subarachnoid space under the subocciptal membrane. At either side of the skull, 3 mm from the midline and 4 mm anteriorly from the bregma, holes were drilled through the skull bone down to dura mater (without perforation) allowing the placement of two laser-Doppler flow probes to measure cortical CBF. […]
During the period, the rat was monitored regularly, and if showing severe distress the animal was prematurely killed. […]

[2] = test system: rats with induced SAH; experiment: Cortical blood flow measured with Laser Doppler; assay type: in vivo, rat; settings: intracisternal injection
Text: as §1, with “CBF. Finally, a 27G blunt canula with side hole was introduced 6.5 mm anterior to bregma in the midline at an angle of 30° to the vertical.” for “CBF.”

[3] = test system: AT2 receptor mRNA; experiment: Real-time PCR of receptor mRNA in cerebral arteries after SAH; assay type: in vivo, rat; settings: MCA, BA and circle of Willis grouped
[4] = test system: ETB receptor protein; experiment: Immunohistochemistry of cerebral arteries after SAH; assay type: in vivo, rat; settings: smooth muscle cell layer; sham 100±3%, SAH 167±4%
Text: (§2) The MCA and BA were dissected out and then placed onto Tissue TEK (Gibco) and frozen. They were then sectioned into 10 μm thick slices. The primary antibodies used were rabbit antihuman ETB (IBL, 16207), diluted 1:400, goat anti mouse 5-HT1B (Santa Cruz Biotechnologies, sc-1461), diluted 1:100, AT1 (Santa Cruz Biotechnologies), diluted 1:100, mouse anti rat CD31 (Serotec, MCA1746), diluted 1:200, and mouse anti rat smooth muscle actin (Serotec, MCA1905T) diluted 1:100. All dilutions were done in PBS with 10% fetal calf serum. The secondary antibodies used were donkeyantimouse Cy™5 conjugated (JacksonImmunoResearch, 715-175-150) 1:100, donkeyantirabbit Cy™3 conjugated (JacksonImmunoResearch, 711-165-152) 1:100 in PBS with 10% fetal calf serum. The antibodies were detected at the appropriate wavelength in a confocal microscopy (Zeiss, USA). As control, only secondary antibodies were used.
(§3) The images were analysed using the ImageJsoftware (http://rsb.info.nih.gov/ij/). The fluorescence in 4-6 different areas in each artery was measured and a mean value was calculated. These values are presented as percentage fluorescence in the SAH groups compared to the sham group, where the sham group is set to 100%.

[5] = test system: AT1 receptor protein; experiment: as above; assay type: in vivo, rat; settings: smooth muscle cell layer; sham 100±7%, SAH 168±7%
Text: as §2, §3

[6] = test system: pERK1/2; experiment: as above; assay type: in vivo, rat; settings: smooth muscle cells; sham 100±3%, SAH 188±7%
[7] = test system: AT1 receptor mRNA; experiment: Real-time PCR of receptor mRNA in cerebral arteries after SAH; assay type: in vivo, rat; settings: MCA, BA and circle of Willis grouped; SAH rats
[8] = test system: rats after MCA occlusion and reperfusion; settings: for brain damage (% of total volume): control 24.8±2%; for oedema (% of total volume): control 1.01±0.03
Procedure: This group of animals went through the same procedure as the above-mentioned SAH animals. Two hours after the MCA occlusion, the rat was re-anesthetized to allow for withdrawal of the filament and subsequent reperfusion of the brain. In conjunction with the reperfusion (0 h), at 6 h or at 12 h afterwards, and at 24 h after the start of the reperfusion in the same animal, the rats were injected intraperitoneal with 30 mg/kg U0126 dissolved in dimethylsulfoxide (DMSO). […] Control rats were injected with an equal volume of DMSO at the same time points.

| SMILES | neurological score [1] | effect of injection alone on cortical blood flow measured with Laser Doppler [2] | expression of AT2 receptor mRNA, difference between sham, SAH and treated SAH [3] | ETB receptor protein level, fluorescence compared to sham [4] [%] | AT1 receptor protein level, fluorescence compared to sham [5] [%] | pERK1/2 level, fluorescence compared to sham [6] [%] | enhanced expression of AT1 receptor mRNA [7] | brain damage (% of total volume) ([8]; 30 mg/kg i.p. starting after 12 h) [%] | brain damage (% of total volume) ([8]; 30 mg/kg i.p. starting at 0 h after MCAO reperfusion) [%] | brain damage (% of total volume) ([8]; 30 mg/kg i.p. starting at 6 h) [%] | lowest dose that elicited a clear significant effect on infarct volume ([8]; intraperitoneal, doses 10 to 100 mg/kg evaluated, preliminary experiments) [mg/kg] | oedema (% of total volume) ([8]; treatment starting at 0 h) | oedema (% of total volume) ([8]; treatment starting at 6 h) | oedema (% of total volume) ([8]; treatment starting at 12 h) |
| --- | --- | --- | --- | --- | --- | --- | --- | --- | --- | --- | --- | --- | --- | --- |
| Cn1cc(C2=C(c3cn(CCCN)c4ccccc34)C(=O)NC2=O)c2ccccc21 [RO-31-7549] | 0 | no effect |  |  |  |  |  |  |  |  |  |  |  |  |
| Oc1cc(-c2nc(-c3ccccc3)[nH]c2-c2ccncc2)ccc1Cl [SB386023-b] | 0 |  | no difference | 109±5 | 105±10 | 102±5 | inhibited |  |  |  |  |  |  |  |
| N#CC(=C(/N)Sc1ccccc1N)/C(C#N)=C(\N)Sc1ccccc1N [U0126] |  |  |  |  |  |  |  | 20.3±1 | 11.8±2 | 14.6±3 | 30 | 1.05±0.02 % of total volume | 0.98±0.02 % of total volume | 1.02±0.04 % of total volume |

Source: patent US8273771B2, “Ischemic disorder or disease inhibitors” (Pronas Pharma AB, priority 2007, dated 2012)
